Values after ≈ are worked out from the molar mass of the structure shown. Where two headings read alike, the source gives them in different places.
Assays:
SARS-CoV-2 3CL Protease = SARS-CoV-2 3CL Protease (Severe acute respiratory syndrome coronavirus 2, UniProt P0DTD1); experiment: biochemical; details: for % inhibition: 100 µM
[1] = tested on: SARS-CoV-2 (hCoV-19/Egypt/NRC-03/2020); experiment: Antiviral IC50 determination, reduction of virus-induced cytopathic effect in Vero-E6 cells (crystal violet); type: cell-based
[2] = set-up: method as in PMID 31468636; details: dose of 600 mg, healthy volunteers, cited from earlier work
Cytotoxicity assay (MTT) = type: cell-based; details: African green monkey, VERO-E6 cells
Experimental: The cytotoxic activity of the tested compounds was tested in VERO-E6 cells by using the 3-(4, 5-dimethylthiazol-2-yl)-2, 5-diphenyltetrazolium bromide (MTT) method with minor modifications. Briefly, the cells were seeded in 96 well-plates (100 µL/well at a density of 3 × 10^5 cells/mL) and incubated for 24 h at 37 °C in 5% CO2. After 24 h, cells were treated with various concentrations of the tested compounds in triplicates. 24 h later, the supernatant was discarded, and cell monolayers were washed with sterile 1× phosphate buffer saline (PBS) 3 times and MTT solution (20 µL of 5 mg/mL stock solution) was added to each well and incubated at 37 °C for 4 h followed by medium aspiration. In each well, the formed formazan crystals were dissolved with 200 µL of acidified isopropanol (0.04 M HCl in absolute isopropanol = 0.073 mL HCL in 50 mL isopropanol). Absorbance of formazan solutions was measured at λ max 540 nm with 620 nm as a reference wavelength using a multi-well plate reader. The percentage of cytotoxicity compared to the untreated cells was determined with the following equation.

[3] = 100 µM concentration, FRET assay, read-out: % inhibition
[4] = SARS COV-2 viral main protease, FRET assay, read-out: IC50
[5] = 100 µM concentration, FRET assay

Q: What does the source list for `C[C@@H]1O[C@@H](O[C@@H]2[C@@H](O)[C@H](OCCc3ccc(O)c(O)c3)O[C@H](CO)[C@H]2OC(=O)/C=C/c2ccc(O)c(O)c2)[C@H](O)[C@H](O)[C@H]1O` [Compound 1, Acteoside]?
A: IC50 (SARS-CoV-2 3CL Protease): 0.043 µM; inhibition at 100 µM (SARS-CoV-2 3CL Protease; [3]): 75.8%

Q: With `O=C(O)c1cc(O)c2c(c1)[C@@H]([C@H]1c3cc(C(=O)O)cc(O)c3C(=O)c3c(O[C@@H]4O[C@H](CO)[C@@H](O)[C@H](O)[C@H]4O)cccc31)c1cccc(O[C@@H]3O[C@H](CO)[C@@H](O)[C@H](O)[C@H]3O)c1C2=O` [Compound 2, Sennoside B] as the compound, how does the inhibition at 100 µM (SARS-CoV-2 3CL Protease) read?
A: 78.5%

Q: What does the source list for `O=C(c1cc(O)cc(O)c1)c1c(O)cc(O)cc1O` [Compound 3, 2,3′,4,5′,6-Pentahydroxy benzophenone]?
A: inhibition at 100 µM (SARS-CoV-2 3CL Protease; [3]): 87.9%; IC50 (SARS-CoV-2 3CL Protease; [4]): 0.102 µM

Q: What does the source list for `COc1ccc(-c2cc(=O)c3c(O)cc(O)cc3o2)cc1Oc1ccc(-c2cc(=O)c3c(O)cc(O)cc3o2)cc1` [Compound 4, Ochnaflavone-4′-methyl ether]?
A: % inhibition (SARS-CoV-2 3CL Protease; [5]): 53.22%; inhibition at 100 µM (SARS-CoV-2 3CL Protease; [3]): 53%

Q: With `O=C1C[C@@H](c2ccc(O)cc2)Oc2cc(O)cc(O)c21` [Compound 5, Naringenin] as the compound, how does the IC50 (SARS-CoV-2 3CL Protease) read?
A: 0.092 µM

Q: What about the inhibition at 100 µM (SARS-CoV-2 3CL Protease) of the same compound?
A: 97.9%

Q: And the IC50 ([1]; Severe acute respiratory syndrome coronavirus 2, Vero C1008, 72 h, read-out: IC50 (anti-SARS-CoV-2))?
A: 28.3 mg/L (≈ 104 µM)

Q: What about the “selectivity index (CC50/IC50)” value ([1]; Vero-E6 cells) of the same compound?
A: 6.3

Q: And the toxicity [2]?
A: without relevant toxicity

Q: What about the Cmax ([2]; read-out: serum Cmax) of the same compound?
A: ~50 µM

Q: What about the CC50 at 24 h (Cytotoxicity assay (MTT)) of the same compound?
A: 179 mg/L (≈ 657 µM)

Q: With `O=c1cc(-c2ccc(O)cc2)oc2cc(OC3O[C@H](CO)[C@@H](O)[C@H](O)[C@H]3O)cc(O)c12` (stereo partly drawn) [Compound 6, Apigenin-7-O-β-D-glucoside] as the compound, how does the inhibition at 100 µM (SARS-CoV-2 3CL Protease; [3]) read?
A: 83.1%

Q: What about the IC50 (SARS-CoV-2 3CL Protease; [4]) of the same compound?
A: 0.074 µM

Q: With `CC(C)C(=O)NCCC1(O)c2scnc2-c2nccc3c2C1Nc1ccccc1-3` (centres unmarked) [Compound 7, Sagitol C] as the compound, how does the inhibition at 100 µM (SARS-CoV-2 3CL Protease) read?
A: 27%

Q: With `O=C(c1ccc(O)c(O)c1)c1c(O)cc(O)cc1OC1OC(CO)C(O)C(O)C1O` [Compound 8, Maclurin-6-O-β-D-glucopyranoside (Rhodanthenone)] as the compound, how does the inhibition at 100 µM (SARS-CoV-2 3CL Protease) read?
A: 23.2%

Q: For `C[C@@H]1O[C@@H](O[C@@H]2[C@@H](O)[C@H](OCCc3ccc(O)c(O)c3)O[C@H](COC(=O)/C=C/c3ccc(O)c(O)c3)[C@H]2O)[C@H](O)[C@H](O)[C@H]1O` [Compound 15, Iso-Acteoside], which inhibition at 100 µM (SARS-CoV-2 3CL Protease) is on record?
A: 24.6%

Q: For `O=c1c(O)c(-c2ccc(O)cc2)oc2cc(OC3OC(CO)C(O)C(O)C3O)cc(O)c12` [Compound 16, Kaempferol-7-O-β-D-glucoside], which inhibition at 100 µM (SARS-CoV-2 3CL Protease) is on record?
A: 23.3%

Q: What does the source list for `CC1=CC(=O)C(C(C)C)=CC1=O` [Compound 17, Thymoquinon]?
A: % inhibition (SARS-CoV-2 3CL Protease; [5]): 63.21%; inhibition at 100 µM (SARS-CoV-2 3CL Protease; [3]): 63%

Q: Which inhibition at 100 µM (SARS-CoV-2 3CL Protease) does the source give for `C/C=C1/[C@H](O[C@@H]2O[C@H](CO)[C@@H](O)[C@H](O)[C@H]2O)OC=C(C(=O)OC)[C@H]1CC(=O)OCCc1ccc(O)c(O)c1` [Compound 18, Oleuropein] here?
A: 26.4%
